Assay [1] deals with JNKs from UV-light irradiated HeLa cells or IL-1 treated PTC cells. Kind of assay: c-Jun phosphorylation by activated JNKs pulled down with GST-Jun from stressed cells. The settings on record: 25 μM peptide. Type of assay: biochemical. As for the experimental part: The effects of the L-TAT or L-TAT-IB1(s) peptides as defined herein on JNKs activated by stressful stimuli were evaluated using GST-Jun to pull down JNKs from UV-light irradiated HeLa cells or IL-1 treated PTC cells. PTC cells were cultured as described above. HeLa cells were cultured in DMEM medium supplemented with 10% Fetal Calf Serum, 100 μg/mL Streptomycin, 100 units/ml Penicillin and 2 mM Glutamine. One hour prior to being used for cell extract preparation, PTC cells were activated with IL-1 as described above, whereas HeLa cells were activated by UV-light (20 J/m^2). Cell extracts were prepared from control, UV-light irradiated HeLa cells and IL-1 treated TC-3 cells by scraping the cell cultures in lysis buffer (20 mM Tris-acetate, 1 mM EGTA, 1% Triton X-100, 10 mM p-nitrophenyl-phosphate, 5 mM sodium pyrophosphate, 10 mMP-glycerophosphate, 1 mM dithiothreitol). Debris were removed by centrifugation for five minutes at 15,000 rpm in an SS-34 Beckman rotor. One-hundred μg extracts were incubated for one hour at room temperature with one μg GST-jun (amino acids 1-89) and 10 μL of glutathione-agarose beads (Sigma). Following four washes with the scraping buffer, the beads were resuspended in the same buffer supplemented with L-TAT or L-TAT-IB1(s) peptides (25 μM) for 20 minutes. […]

Assay [2] relates to recombinant JNK1, JNK2 and JNK3. Nature of the assay: Solid phase kinase assay, phosphorylation of c-Jun, ATF2 and Elk1 by recombinant JNKs. Type of assay: biochemical. As for the experimental part:
(§1) The effects of the peptides on JNKs-mediated phosphorylation of their target transcription factors were investigated in vitro. Recombinant and non activated JNK1, JNK2 and JNK3 were produced using a TRANSCRIPTION AND TRANSLATION rabbit reticulocyte lysate kit (Promega) and used in solid phase kinase assays with c-Jun, ATF2 and Elk1, either alone or fused to glutathione-S-transferase (GST), as substrates. Dose response studies were performed wherein L-TAT or L-TAT-IB1(s) peptides (0-25 μM) were mixed with the recombinant JNK1, JNK2, or JNK3 kinases in reaction buffer (20 mM Tris-acetate, 1 mM EGTA, 10 mM p-nitrophenyl-phosphate (pNPP), 5 mM sodium pyrophosphate, 10 mM p-glycerophosphate, 1 mM dithiothreitol) for 20 minutes. The kinase reactions were then initiated by the addition of 10 mM MgCl2 and 5 pCi ^33P-dATP and 1 μg of either GST-Jun (aa 1-89), GST-AFT2 (aa 1-96) or GST-ELK1 (aa 307-428). GST-fusion proteins were purchased from Stratagene (La Jolla, Calif.).
Ten μL of glutathione-agarose beads were also added to the mixture. Reaction products were then separated by SDS-PAGE on a denaturing 10% polyacrylamide gel. Gels were dried and subsequently exposed to X-ray films (Kodak). […] The ability of D-TAT, D-TAT-IB1(s) and L-TAT-IB1(s) peptides (0-250 μM dosage study) to inhibit GST-Jun (aa 1-73) phosphorylation by recombinant JNK1, JNK2, and JNK3 by were analyzed as described above. Overall, D-TAT-IB1(s) peptide decreased JNK-mediated phosphorylation of c-Jun, but at levels approximately 10-20 fold less efficiently than L-TAT-IB1(s).

The next assay concerns TC-3 cells. Kind of assay: IL-1 induced pancreatic beta-cell death in TC-3 cells treated with peptides. Type of assay: cell-based. The following applies: one single addition 1 μM, IL-1 10 ng/ml every two days. As for the experimental part:
Inhibition of IL-1 induced pancreatic beta-cell death by the D-TAT-IB1(s) peptide was analyzed. TC-3 cells were incubated as described above for 30 minutes with one single addition of the indicated peptides (1, μM), then IL-1 (10 ng/ml) was added.
Apoptotic cells were then counted after two days of incubation with IL-1 by use of Propidium Iodide and Hoechst 33342 nuclear staining. A minimum of 1,000 cells were counted for each experiment.
Long term inhibition of IL-1P induced cell-death by the D-TAT-IB1 peptide was also analyzed. TC-3 cells were incubated as above for 30 minutes with one single addition of the indicated peptides (1 μM), then IL-1 (10 ng/ml) was added, followed by addition of the cytokine every two days. Apoptotic cells were then counted after 15 days of incubation with IL-1 by use of propidium iodide and Hoechst 33342 nuclear staining. […] A minimum of 1.000 cells were counted for each experiment.

A further assay deals with T1, JNK3 (Homo sapiens, UniProt P53779).
T1 construct: host or cells: cell-free: rabbit reticulocyte lysate, in vitro transcription and translation
T1 sequence (P53779 whole entry, species assumed): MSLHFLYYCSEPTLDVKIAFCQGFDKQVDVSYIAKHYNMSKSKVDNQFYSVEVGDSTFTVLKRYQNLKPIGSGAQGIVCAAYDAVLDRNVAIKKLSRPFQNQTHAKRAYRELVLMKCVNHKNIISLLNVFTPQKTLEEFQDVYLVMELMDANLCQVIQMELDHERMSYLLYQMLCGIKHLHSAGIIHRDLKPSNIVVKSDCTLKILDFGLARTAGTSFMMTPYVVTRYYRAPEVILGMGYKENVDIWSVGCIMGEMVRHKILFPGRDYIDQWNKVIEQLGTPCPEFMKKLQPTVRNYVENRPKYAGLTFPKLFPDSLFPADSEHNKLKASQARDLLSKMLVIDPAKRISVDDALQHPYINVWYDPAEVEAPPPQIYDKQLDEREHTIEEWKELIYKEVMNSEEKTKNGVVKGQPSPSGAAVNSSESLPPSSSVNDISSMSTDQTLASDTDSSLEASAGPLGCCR
Kind of assay: Solid phase kinase assay, JNK3 phosphorylation of Elk1. Format: biochemical. The following applies: dose response 0-25 μM. As for the experimental part:
as §1
Ten μL of glutathione-agarose beads were also added to the mixture. Reaction products were then separated by SDS-PAGE on a denaturing 10% polyacrylamide gel. Gels were dried and subsequently exposed to X-ray films (Kodak). […] The ability of D-TAT, D-TAT-IB1(s) and L-TAT-IB1(s) peptides (0-250 μM dosage study) to inhibit GST-Jun (aa 1-73) phosphorylation by recombinant JNK1, JNK2, and JNK3 by were analyzed as described above. […]

The test system of a further assay is AP-1 DNA binding complex. Kind of assay: Gel retardation assay with AP-1 probe, HeLa cell nuclear extracts. The settings on record: in the presence of TNF-alpha, peptide added 30 minutes before. Format: cell-based.
For assay [3], the system named is JNK mediated activation of c-Jun in HeLa cells. Kind of assay: GAL4-Jun luciferase reporter assay in HeLa cells with MKK4/MKK7 co-transfection. The settings on record: 1 μM peptide, 16 hours. Type of assay: cell-based. The text has this:
To determine whether the cell-permeable peptides as defined herein could block JNK signaling in vivo, we used a heterologous GAL4 system. HeLa cells, cultured as described above, were co-transfected with the 5×GAL-LUC reporter vector together with the GAL-Jun expression construct (Stratagene) comprising the activation domain of c-Jun (amino acids 1-89) linked to the GAL4 DNA-binding domain. Activation of JNK was achieved by the co-transfection of vectors expressing the directly upstream kinases MKK4 and MKK7 (see Whitmarsh et al, Science 285: 1573 (1999)). Briefly, 3×10^5 cells were transfected with the plasmids in 3.5-cm dishes using DOTAP (Boehringer Mannheim) following instructions from the manufacturer. For experiments involving GAL-Jun, 20 ng of the plasmid was transfected with 1 μg of the reporter plasmid pFR-Luc (Stratagene) and 0.5 μg of either MKK4 or MKK7 expressing plasmids. Three hours following transfection, cell media were changed and TAT and TAT-IB1(s) peptides (1 μM) were added. The luciferase activities were measured 16 hours later using the “Dual Reporter System” from Promega after normalization to protein content. […] Because HeLa cells express JNK1 and JNK2 isoforms but not JNK3, we transfected cells with JNK3.
(In a reporter assay the amount or activity of a reporter protein is the signal.)

A further assay relates to TC-3 cell cultures. Kind of assay: Cellular import and intracellular persistence of fluorescein-labeled peptides in TC-3 cells. Type of assay: cell-based. The following applies: 1 μM. The protocol:
The ability of the L- and D-enantiomeric forms of TAT and TAT-IB1(s) peptides (“TAT-IB peptides”) to enter cells was evaluated. L-TAT, D-TAT, L-TAT-IB1(s), and D-TAT-IB1(s) peptides [SEQ ID NOs: 5, 6, 9 and 12, respectively] were labeled by N-terminal addition of a glycine residue conjugated to fluorescein. Labeled peptides (1 μM) were added to TC-3 cell cultures, which were maintained as described in Example 3. At predetermined times cells were washed with PBS and fixed for five minutes in ice-cold methanol-acetone (1:1) before being examined under a fluorescence microscope. Fluorescein-labeled BSA (1 μM, 12 moles/mole BSA) was used as a control.
Little to no signal was present at 48 hours.

Assay [4] relates to Insulin producing TC-3 cells. The following applies: previously shown (Ammendrup et al.); cited from earlier work.

Take “NH2-GRKKRRQRRRPPRPKRPTTLNLFPQVPRSQD-COOH (H-GRKKRRQRRRPPRPKRPTTLNLFPQVPRSQD-OH) [L-TAT-IB1(s)]”: the “prevention of phosphorylation of c-Jun by activated JNKs” value in assay [1] is recorded as “efficiently prevented phosphorylation of c-Jun”. For the same molecule, the “inhibiting JNK family phosphorylation of their target transcription factors, overall” value in assay [2] was “superior effects”. Besides, in assay [2] (dose response 0-25 μM), the “peptide dose at which nearly complete inhibition of c-Jun, ATF2 and Elk1 phosphorylation by JNKs was observed (as low as)” value worked out at 2.5 µM. Also, the “long term protection from IL-1 induced cell-death, 15 days” value in the assay on TC-3 cells is “not”. Also, the “inhibition of JNK3 phosphorylation of Elk1” value with JNK3 is recorded as “absence of TAT-IB(s) inhibition”. Further, the “formation of the AP-1 DNA binding complex” value with AP-1 DNA binding complex is on record as “decrease the formation of the AP-1 DNA binding complex”. Also, the “activation of c-Jun following MKK4 and MKK7 mediated activation of JNK (luciferase)” value in assay [3] is recorded as “blocked activation of c-Jun”. Moreover, the entry into cells entry in the assay on TC-3 cell cultures was “efficiently and rapidly (less than five minutes) entered cells”.

B1: JBD1-280: the GFP vector linked to the entire JBD (aa 1-280) (protein, UniProt Q9UQF2 1-280, looked up, fragment)
chain: MAERESGGLGGGAASPPAASPFLGLHIASPPNFRLTHDISLEEFEDEDLSEITDECGISLQCKDTLSLRPPRAGLLSAGGGGAGSRLQAEMLQMDLIDATGDTPGAEDDEEDDDEERAARRPGAGPPKAESGQEPASRGQGQSQGQSQGPGSGDTYRPKRPTTLNLFPQVPRSQDTLNNNSLGKKHSWQDRVSRSSSPLKTGEQTPPHEHICLSDELPPQSGPAPTTDRGTSTDSPCRRSTATQMAPPGGPPAAPPGGRGHSHRDRIHYQADVRLEATEE
modifications: fused to GFP
In the case of B1, the “block of IL1 induced pancreatic beta-cell apoptosis by transfection” value in assay [4] is recorded as “blocked”.

These data come from patent publication US9180159B2, “Use of cell-permeable peptide inhibitors of the JNK signal transduction pathway for the treatment of chronic or non-chronic inflammatory digestive diseases” (Xigen Inflammation Ltd., priority 2008, dated 2015).
